Measured values taken from USH25H, “Thiophosphoryl triamide as a urease inhibitor” (Tennessee Valley Authority, priority 1985, dated 1986).

How the values were obtained:
urease [1] = conditions: literature and earlier patents; cited from earlier work
[2] = test system: soil urease (Hastings silt loam); experiment: Urea hydrolysis in bands of urea plus inhibitor in soil (banded soil system); type: biochemical; conditions: for % inhibition, as measured by percent urea unhydrolyzed: 41 mg inhibitor + 410 mg urea per band, Hastings silt loam, 25° C.
Source text: Another advantage of the banded configuration compared with mixing throughout the soil is that slightly soluble test compounds can be easily band applied, whereas it is difficult to achieve a known degree of mixing of a small quantity of slightly soluble test compound with soil. The banded configuration also enables testing for urease inhibition under realistic soil conditions prior to the development of techniques for cogranulating a wide range of test compounds with urea. […] Urease-active soil (Hastings silt loam) was moistened to a moisture content of 20% (dry weight basis) and preincubated at room temperature for two days. Plexiglas containers (6×6×6 -cm) were one-half filled with soil and packed to a bulk density of 1.1 g/cm^3. Urea or urea plus inhibitor (thoroughly mixed) was distributed in a narrow band 6-cm long on the soil surface. The containers then were filled with soil, again packing to a bulk density of 1.1 g/cm^3. The containers were incubated at 25° C. for the desired reaction period, after which the containers were frozen to about -5° C. to stop urea hydrolysis. Immediately prior to extracting the remaining urea from the soil, said soil was allowed to thaw. Soil from each container was thoroughly mixed, and a 10-g sample was extracted with 100 ml of 2 M KCl containing phenylmercuric acetate to prevent urea hydrolysis during handling [L. A. Douglass and J. M. Bremner, Soil Sci. Soc. Am.
Urease-active soil (Hastings silt loam) was moistened to a moisture content of 20% and preincubated at room temperature for two days. Plexiglas containers (6×6×6 cm) were one-half filled with soil and packed to a bulk density of 1.1 g/cm^3. Urea or urea plus inhibitor (thoroughly mixed) was distributed in a narrow band 6-cm long on the surface of the soil. The containers then were filled with soil and again packed to a bulk density of 1.1 g/cm^3. The containers were incubated at 25° C. for the desired reaction period. The soil from each container was thoroughly mixed, and a 10-g sample was extracted with 100 ml of 2 M KCl containing 5 ppm phenylmercuric acetate to prevent urea hydrolysis during handling [L. A. Douglass and J. M. Bremner, Soil Sci. Soc. Am. […] The urea in the extracts was determined colorimetrically as a measure of the unhydrolyzed urea.

[3] = test system: soil urease (Crowley silt loam); experiment: Well-mixed inhibitor-soil incubation test, urea added at intervals (modified Douglass and Bremner procedure); type: biochemical; conditions: for Percent urea unhydrolyzed (higher = more urease inhibition): 7 micromoles per 120 g Crowley soil, 30° C., 16 hours with urea
Method: Test compounds in Example II, infra, were evaluated in soil systems by a modification of the Douglass and Bremner procedure [L. A. Douglass and J. W. Bremner, Soil Biol. Biochem. 3, 309-315 (1971)] in which solutions or suspensions of the test compounds were mixed throughout the soil. Then at selected time intervals urea was added to the soil-inhibitor mixtures. The advantage of this procedure is that soil urease inhibition by the test compounds can be detected for time periods lasting up to several weeks or longer.
(§1) Specifics of the procedure for evaluating the test compounds in Example II were the following. Urease-active soil (Crowley silt loam from Louisiana) was moistened to a moisture content of 16% (dry weight basis) and preincubated at room temperature for two days. One milliliter of solution or suspension containing 7 micromoles of each test compound was added to 120 g of moist soil and mixed well. Polyvinylchloride cylinders 12-cm long and 4 cm in diameter were filled with the inhibitor-soil mixtures, packed to a bulk density of about 0.9 g/cm^3, and covered with a perforated plastic film. […] At each time interval, 1 ml of urea solution containing 50 mg of urea was mixed well with the inhibitor-soil mixture from a single column. The urea-inhibitor-soil mixture was packed in a column to a bulk density of about 0.9 g/cm^3, covered with a perforated plastic film, and reincubated for 16 hours at 30° C. Following the 16 hours of reincubation, about 120 g of the urea-inhibitor-soil mixture was extracted with 250 ml of 2 M KCl containing 5 ppm of […]. The KCl-PPDA extracts were analyzed on the Auto Analyzer II [Technicon method No. 40001 FD4, Technicon, Tarrytown, N.Y., U.S.A. (1974)]. Three replicates were used on all treatments and checks.
as §1, with “are as follows.” for “were the following.”, “New York,” for “N.Y.,”, “checks. Two groups of compounds were tested as indicated in Table IV as Test Series I and Test Series II.” for “checks.”

urease [4] = conditions: IFDC, unpublished results; cited from earlier work
[5] = Test Series I, inhibitor incubation 0 days
[6] = Test Series I, inhibitor incubation 3 days
[7] = Test Series I, inhibitor incubation 7 days
[8] = Test Series I, inhibitor incubation 14 days
[9] = Test Series I, inhibitor incubation 21 days
[10] = Test Series I, inhibitor incubation 35 days
[11] = Test Series II, inhibitor incubation 0 days
[12] = Test Series II, inhibitor incubation 7 days
[13] = Test Series II, inhibitor incubation 15 days
[14] = Test Series II, inhibitor incubation 21 days

| SMILES | urease inhibition (in words) reported by previous workers (urease [1]) | % inhibition, as measured by percent urea unhydrolyzed ([2]; Test Series I, 3 days) | % inhibition, as measured by percent urea unhydrolyzed ([2]; Test Series I, 6 days) | Percent urea unhydrolyzed (higher = more urease inhibition) [3, 5] | Percent urea unhydrolyzed (higher = more urease inhibition) [3, 6] | Percent urea unhydrolyzed (higher = more urease inhibition) [3, 7] | Percent urea unhydrolyzed (higher = more urease inhibition) [3, 8] | Percent urea unhydrolyzed (higher = more urease inhibition) [3, 9] | Percent urea unhydrolyzed (higher = more urease inhibition) [3, 10] | Percent urea unhydrolyzed (higher = more urease inhibition) [3, 11] | Percent urea unhydrolyzed (higher = more urease inhibition) [3, 12] | Percent urea unhydrolyzed (higher = more urease inhibition) [3, 13] | Percent urea unhydrolyzed (higher = more urease inhibition) [3, 14] | urease inhibitory activity remaining after long inhibitor incubation (in words) ([3]; up to 21 days incubation, Table IV, FIGS. 3 and 4) | effectiveness as an inhibitor of soil urease activity compared with PPDA (in words) ([2]; Table III, FIGS. 1 and 2, three-day and six-day tests) | % inhibition, as measured by percent urea unhydrolyzed ([2]; Test Series II, 0 days) | % inhibition, as measured by percent urea unhydrolyzed ([2]; Test Series II, 3 days) | % inhibition, as measured by percent urea unhydrolyzed ([2]; Test Series II, 6 days) | type of urease inhibition (urease [4]) |
| --- | --- | --- | --- | --- | --- | --- | --- | --- | --- | --- | --- | --- | --- | --- | --- | --- | --- | --- | --- |
| NP(N)(N)=O [PTA, Phosphoryl triamide] | powerful urease inhibitors | 54.6% | 2.6% |  |  |  |  |  |  |  |  |  |  |  |  |  |  |  |  |
| NP(=O)(O)O [monoamidophosphoric acid] | effective urease inhibitors |  |  |  |  |  |  |  |  |  |  |  |  |  |  |  |  |  |  |
| NP(N)(=O)O [diamidophosphoric acid] | effective urease inhibitors |  |  |  |  |  |  |  |  |  |  |  |  |  |  |  |  |  |  |
| NP(N)(N)=S [TPTA, Thiophosphoryl triamide] | ineffective as a urease inhibitor | 71.7% | 34.9% | 59% | 54% | 54% | 19% | 27% | 2% | 47% | 13% | 37% | 18% | superior | superior to PPDA | 100.0% | 88.0% | 61.1% |  |
| Oc1ccc(O)cc1 [hydroquinone] |  |  |  |  |  |  |  |  |  |  |  |  |  |  |  |  |  |  | mixed inhibition mechanism |
| NP(N)(=S)Oc1ccccc1 [PTPDA, Phenylthiophosphenyl diamidate] | less effective as an inhibitor |  |  |  |  |  |  |  |  | 56% | 21% | 24% | 2% |  |  | 100.0% | 97.2% | 65.7% |  |
| NP(N)(=O)Oc1ccccc1 [PPDA, Phenyl phosphorodiamidate] | extremely potent inhibitor of urease activity | 62.6% | 10.1% | 100% | 65% | 59% | 33% | 13% | 2% | 89% | 38% | 37% | 11% |  |  | 96.4% | 90.3% | 58.2% | competitive inhibition |
